Test results: patent US8008092B2, “CCR3 inhibition for ocular angiogenesis and macular degeneration” (University of Kentucky Research Foundation, priority 2007, dated 2011)

B1: Eotaxin-3: recombinant human eotaxin-3 (Peprotech), CCR3 ligand (protein, UniProt Q9Y258 24-94, looked up)
C-C motif chemokine 26: TRGSDISKTCCFQYSHKPLPWTWVRSYEFTSNSCSQRAVIFTTKRGKKVCTHPRKKWVQKYISLLKTPKQL
B2: Eotaxin-2: recombinant human eotaxin-2 (Peprotech), CCR3 ligand (protein, UniProt O00175 27-119, looked up)
C-C motif chemokine 24: VVIPSPCCMFFVSKRIPENRVVSYQLSSRSTCLKAGVIFTTKKGQQFCGDPKQEWVQRYMKNLDAKQKKASPRARAVAVKGPVQRYPGNQTTC

Assays:
[1] = system: choroidal neovascularization (CNV); assay: Laser-induced choroidal neovascularization (CNV) volume, intravitreous injection; format: in vivo, C57BL/6J mice; details: wild-type mice, injected into the vitreous humor immediately after laser injury; compared to vehicle control (DMSO)
Procedure: Laser photocoagulation (532 nm, 200 mW, 100 ms, 75 μm) (OcuLight GL, Iridex Corporation) was performed (volume studies: 3/eye; protein analyses/flow cytometry: 12/eye) on both eyes of each animal to induce CNV (choroidal neovascularization). CNV volumes were measured by scanning laser confocal microscope (TCS SP, Leica) with 0.5% FITC-Griffonia simplicifolia Isolectin B4 (Vector Laboratories). CNV was induced by laser injury in C57BL/6J and Ccr3^−/− mice and volumes measured 7 days later by confocal evaluation of Griffonia simplicifolia Isolectin B4 staining of RPE-choroid flatmounts. […]
Because the probability of each laser lesion developing CNV is influenced by the group to which it belongs, the mouse, the eye, and the laser spot, the mean lesion volumes were compared using a linear mixed model with a split plot repeated measures design. […] Statistical significance was determined at the 0.05 level. […]
Laser photocoagulation (532 nm, 200 mW, 100 ms, 75 μm) (OcuLight GL, Iridex Corporation) was performed (volume studies: 3/eye; protein analyses/flow cytometry: 12/eye) on both eyes of each animal to induce CNV. CNV volumes were measured by scanning laser confocal microscope (TCS SP, Leica) with 0.5% FITC-Griffonia simplicifolia Isolectin B4 (Vector Laboratories) or 0.5% FITC-rat antibody against mouse CD31 (BD Biosciences). […]

[2] = system: Rac-1 GTPase in Human CECs (hCECs); assay: Rac-1 activation assay (GST-Pak1-PBD pull-down, western blot); format: cell-based; details: hCEC, eotaxin-1 10 ng/ml, at 10 seconds, normalized against control band density
Procedure: A Rac-1 activation assay was performed. Human CECs were cultured in EGM-2 MV containing 5% FBS. Prior to starting the assay, cells were serum starved with basal medium (MCDB131) supplemented with 1% FB S overnight. Cells were stimulated for designated times with Eotaxin-1, 2 and 3 (10 ng/ml, 100 ng/ml and 2 μg/ml respectively). Equal amounts of lysates (500 μg) were incubated with GST-Pak1-PBD agarose beads (Upstate) to pull-down active GTP-bound Rac-1 at 4° C. for 1 hour with rotation. The samples were subsequently analyzed for bound Rac-1 by western blot analysis using an anti-Rac-1 antibody (Upstate). Band density was measured using VisionWorksLS software (UVP).
hCECs) were stimulated with Eotaxin-1, 2 and 3 for indicated times. Cells without Eotaxin stimulation were used as a control (0 sec). Equal amount (500 μg) of total cell lysates was used to determine the GTP-bound Rac-1 (active) by pull-down assays. Levels of increase of active Rac-1 were measured after normalizing against the control band density.

[3] = system: primary hCEC; assay: F-actin polymerization assay; format: cell-based, human; details: eotaxin-1 10 ng/mL, eotaxin-2 100 ng/mL, eotaxin-3 2 μg/mL
Procedure: A F-actin polymerization assay was performed. 10,000 cells from early passage primary hCEC isolates (n=3) were seeded in black-walled 96-well plates and grown to 70-80% confluency in fully supplemented EGM-2MV. Cultures were serum starved overnight in basal media and then stimulated with recombinant human eotaxin-1 (10 ng/mL), eotaxin-2 (100 ng/mL), eotaxin-3 (2 μg/mL) (Peprotech), or vehicle control (PBS). At 0, 10, 30, 60, or 120 second time-points (n=4 per group), cells were fixed in 3.7% paraformaldehyde for 10 minutes, washed, permeabilized in PBS with 0.1% Triton-X, and then stained with rhodamine labeled Phalloidin (1:200, Invitrogen) per manufacturer's recommendations. Plates were analyzed on a fluorescent plate reader (Synergy 4, Biotek) followed by fluorescent microscopy (Nikon E800).
F-actin polymer ratios between baseline and treated cultures were calculated using a fluorescent based plate assay.

Molecule | CNV volume [1] | increase of Rac-1 activation [2] | time of peak F-actin polymerization after stimulation [3]
(S)-Methyl-2-naphthoylamino-3-(4-nitrophenyl)propionate [SB328437] | reduces CNV volume in a dose-dependent and statistically significant manner | – | –
Eotaxin-1: recombinant human eotaxin-1 (Peprotech), CCR3 ligand | – | about 6.5 fold | 10 s
B1 | – | – | 10 s
B2 | – | – | 10 s
